Measurements reported in patent US11371040B2, “Endonuclease-barcoding” (priority 2015, dated 2022).

Tests used:
MCF7 cells = assay: TP53 CRISPR-barcoding (TP53-STOP vs TP53-WT barcode, qPCR) in MCF7 cells; type: cell-based; settings: relative to TP53-WT control barcode
Method: (§1) 293T (human embryonic kidney), DLD-1, HCT-116 (colorectal carcinoma), MCF-7 (breast cancer) were obtained from ATCC, PC9 cells (NSCLC) were obtained from ECACC-Sigma-Aldrich, Kelly cells (neuroblastoma) were a kind gift from Dr. C. Einvik. All cells were grown in Dulbecco's modified Eagle's Medium (Life technologies) except Kelly and PC-9 cells, grown in Roswell Park Memorial Institute medium (Life technologies), both supplemented with 10% fetal bovine serum (FBS, Life Technologies) and 0.6% penicillin/streptomycin (Life technologies). Cells were transfected with a Nucleofector II device (Lonza) using the Amaxa Nucleofector kit (Lonza) and electroporation program recommended by the manufacturer. 293T cells were transfected using polyethylenimine (Polysciences). The efficiency of each transfection was assessed in parallel using a GFP-containing plasmid. […]
(§2) gDNA was extracted using the NucleoSpin Tissue kit (Macherey-Nagel). […] Primer specificity for each particular barcode was assessed. qPCR was performed from 100 ng of gDNA using SYBR Green (Life Technologies) on a 7900 HT Fast-Real-Time, a Q-PCR ABI PRISM 7500 or a QuantStudio Flex PCR System (Life Technologies). qPCR analysis was performed using the standard curve or the Pfaffl methods (Pfaffl, 2001).

HCT-116 cells = assay: TP53 CRISPR-barcoding (TP53-STOP vs TP53-WT barcode, qPCR) in HCT-116 cells; type: cell-based; settings: relative to TP53-WT control barcode
Method: as §1, §2

PC9 cells [1] = assay: Mouse xenografts of multiplex CRISPR-barcoded PC9 cells; type: in vivo, SCID mice
Method: PC9 cells containing the EGFR-T790, KRAS-G12 and EML4-ALK barcodes were resuspended in PBS and subcutaneously inoculated in the left and right flank (2×10^6 cells per site) of male SCID mice (NCI). The size of the tumors was measured by caliper every 3-4 days. […] When the size of at least one of the tumors reached the arbitrary volume of 550 mm^3, the mice were sacrificed and gDNA was extracted from the tumors for qPCR analysis.
When at least one of the two tumors exceeded the arbitrary volume of 550 mm^3, the mice were sacrificed and gDNA was derived from the tumors. The frequency of the three different mutations in the tumor samples was measured by qPCR and normalized to the levels observed in the same batch of cells prior to injection in the mice.

PC9 cells [2] = assay: KRAS-G12 CRISPR-barcoding in PC9 cells; type: cell-based; settings: PC9 cells treated in the presence or absence of inhibitor
Excerpt: CRISPR Barcoding sgRNA target sequences (See Sequence Listing—SEQ ID No 1-14) were designed using the CRISPR Design tool hosted by the Massachusetts Institute of Technology (see the website located at crispr.mit,edu) to minimize potential off-target effects. Oligos encoding the targeting sequence were then annealed and ligated into the pSpCas9(BB)-2A-Puro (Ran et al., 2013) vector digested with Bbsl (New England Biolabs). The sequence of the ssODNs (Integrated DNA Technologies) used for CRISPR/Cas9-mediated HDR, containing one missense/nonsense mutation coupled with different silent mutations, are provided in the sequence listing (SEQ ID No 15-29). The set of silent mutations is designed to enable PCR specificity and to avoid recognition by the corresponding sgRNA used to cleave the endogenous sequence. For each targeted locus, cells were co-transfected with 2 μg of the CRISPR/Cas9 plasmid and […] of either the control or the sense/nonsense ssODN (50 μM). […]
as §2, with “2001). […]” for “2001).”

PC9 cells [3] = assay: EML4-ALK inversion barcoding in PC9 cells; type: cell-based

COc1cccc2c1C(=O)c1c(O)c3c(c(O)c1C2=O)C[C@@](O)(C(=O)CO)C[C@@H]3O[C@H]1C[C@H](N)[C@H](O)[C@H](C)O1 [doxorubicin]
fraction of cells containing the TP53-STOP barcode (MCF7 cells): did not affect
fraction of cells containing the TP53-STOP barcode (HCT-116 cells): did not affect

COc1cc2ncnc(Nc3ccc(F)c(Cl)c3)c2cc1OCCCN1CCOCC1 [gefitinib]
growth of the tumors (PC9 cells [1]; 25 mg/kg/day by gavage, from day 16 after injection): initially arrested upon gefitinib treatment, but it eventually resumed after a few weeks
proportion of all three mutations (EGFR-T790M, KRAS-G12D, EML4-ALK) in the tumors (PC9 cells [1]; 25 mg/kg/day, qPCR, normalized to cells prior to injection): strongly increased
enrichment of KRAS-G12D cells (PC9 cells [2]): significant enrichment
enrichment of EML4-ALK containing PC9 cells (PC9 cells [3]): induced an enrichment

COc1ccc(C2=N[C@@H](c3ccc(Cl)cc3)[C@@H](c3ccc(Cl)cc3)N2C(=O)N2CCNC(=O)C2)c(OC(C)C)c1 (racemic) [Nutlin 3]
fraction of cells containing the TP53-STOP barcode (MCF7 cells): significantly increased
fraction of cells containing the TP53-STOP barcode (HCT-116 cells): significantly increased
